{"source": "patent US6365628B1", "about": "(Thia Medica AS, priority 1998, dated 2002)", "key": {"Wistar rats": {"tested_on": "Wistar rats", "assay": "Lipid lowering effect in normal Wistar rats (Example 4)", "assay_type": "in vivo, rat", "conditions": "gavage once daily for 7 days", "description": "Phospholipids were measured by the enzymatic method of bioMérieux, Marcy-l {grave over ( )}Etoile, France, Triacylglycerol by the Technicon Method no. SA4-0324L90, USA and Cholesterol by the Technicon Method no. SA4-0305L90, USA.\nMale Wistar rats, weighing 180-200 g at the start of the experiment, were housed individually in metal wire cages in a room maintained at 12 h light-dark cycles and a constant temperature of 20±3° C. The animals were acclimatised for one week under these conditions before the start of the experiments.\nTTA, TSA and eicosapentaenoic acid (EPA) were suspended in 0.5% (w/v) carboxymethyl cellulose (CMC). Six animals were used for each treatment, and a 0.5% CMC solution was administrated to the rats as control. After administration of the test compound, the rats were fasted for 12 hours and anaesthetised with haloethan. The EPA and the fatty acid derivatives were administered by gastric intubation (gavage) once daily for 7 days. Blood samples were collected by cardiac puncture, and lipid concentrations in plasma were determined as outlined in the method section."}, "male Wistar rats": {"tested_on": "male Wistar rats", "assay": "Hepatic levels of triacylglycerol in rats fed fatty acid analogues (Example 17)", "assay_type": "in vivo, rat", "conditions": "no prefeeding", "excerpt": "Even an increased hepatic level of triacylglycerol may be relieved by TTA. Feeding rats with an inhibitor of fatty acid oxidation will increase the level of hepatic triacylglycerol resulting in fatty liver. Tetradecyl-4-thia propionic acid (TTP) is a fatty acid analogue with a sulphur atom in the 4 position. This analogue inhibits the β-oxidation of fatty acids due to the formation of a mitochondrial inhibitor. Feeding rats with this analogue results in the formation of fatty. However, if the rats are fed with a combination of TTA and TTP, the formation of fatty liver is avoided (Table 8). This provides evidence that TTA may be used for the treatment of conditions with an increased hepatic level of triacylglycerol. Male Wistar rats had free access to water and rat maintenance chow. They were fed palmitic acid or fatty acid analogues suspended in 0.5% CMC for 6 days. In some experiments TTA or TTP were fed for 3 days before feeding both for 6 days. At the end of the experiment the rats were fasted overnight, killed, the liver removed and homogenized. Triacylglycerol was measured in the homogenate."}, "[1]": {"tested_on": "rat liver mitochondrial β-oxidation", "assay": "Mitochondrial β-oxidation in rat liver, fatty acid analogues with S in different positions (Example 18)", "assay_type": "in vivo", "conditions": "[1-14C]-palmitoyl-L-carnitine as substrate", "protocol": "Freshly isolated livers from individual old Zucker rats, were homogenised in ice-cold sucrose buffer (0.25 M sucrose, 10 mM HEPES (pH 7.4) and 2 mM EDTA). Post-nuclear and mitochondrial fractions were prepared using preparative differential centrifugation according to DeDuve et al. (De Duve, C., et al., Biochem. J., 60, 604-617 1955.) Modifications, purity and yield were as described earlier (Garras, A., et al., Biochim. Biophys. Acta, 1255, 154-160 1995.). Acid soluble products were measured in post-nuclear and mitochondrial enriched fractions, using [1-^14C]-palmitoyl-CoA and [1-^14C]-palmitoyl-L-carnitine (Radiochemical Centre, Amersham, England) as substrates as described earlier (Willumsen, N., et al., J. Lipid Res., 34, 13-22 1993. Carnitine palmitoyltransferase-I and -II activities were measured in the post-nuclear and mitochondrial fractions essentially as described by Bremer (Bremer, J., Biochim. Biophys. Acta, 665, 628-631 1981.) and 3-hydroxy-3-methylglutharyl-CoA synthase was measured according to Clinkenbeard et al. (Clinkenbeard, K. D., et al., J. Biol. Chem, 250, 3108-3116 1975.) in the mitochondrial fractions.\nThe mitochondrial β-oxidation is measured as in example 16 with the use of [1-^14C]-palmitoyl-L-carnitine as substrates."}, "Escherichia coli": {"tested_on": "Escherichia coli", "assay": "Test for mutagenic activity in Escherichia coli strains", "assay_type": "cell-based", "conditions": "3-1000 mg/plate (TTA) 2-5000 mg/plate (TSA)", "excerpt": "(§1) Tests for mutagenic activity have been performed by Covance Laboratories Limited, England. […] Furthermore, TTA was not mutagenic when tested in mouse lymphoma cells […] L5178Y."}, "Salmonella typhimurium": {"tested_on": "Salmonella typhimurium", "assay": "Test for mutagenic activity in Salmonella typhimurium strains", "assay_type": "cell-based", "conditions": "3-1000 mg/plate (TTA) 2-5000 mg/plate (TSA)", "excerpt": "as §1"}, "[2]": {"tested_on": "chinese hamster ovary cells", "assay": "Chromosomal aberrations in cultured chinese hamster ovary cells", "assay_type": "cell-based", "conditions": "doses tested 12-140 mg/ml"}, "[3]": {"conditions": "dose 1500 mg/day/kg body weight"}}, "data": [{"molecule": "CC/C=C\\C/C=C\\C/C=C\\C/C=C\\C/C=C\\CCCC(=O)O", "note": "[EPA, eicosapentaenoic acid, reference compound]", "values": [{"measurement": "Plasma lipids (% reduction of control) cholesterol", "setting": "Wistar rats; [3]", "value": "18 % reduction of control"}, {"measurement": "Plasma lipids (% reduction of control) triglycerides", "setting": "Wistar rats; [3]", "value": "20 % reduction of control"}]}, {"molecule": "CCCCCCCCCCCCCCCC(=O)O", "note": "[Palm, palmitic acid]", "values": [{"measurement": "Hepatic triacylglycerol TG (μmol/g)", "setting": "male Wistar rats; palmitic acid for 6 days", "value": "10,9 μmol/g"}, {"measurement": "Mitochondrial β-oxidation activity (nmol/min/mg protein)", "setting": "[1]", "value": "0,47 ± 0,06 nmol/min/mg protein"}]}, {"molecule": "Tetradecylselenoacetic acid [TSA]", "values": [{"measurement": "Induction of mutations in strains of Escherichia coli", "setting": "Escherichia coli", "value": "did not induce mutations"}, {"measurement": "Induction of mutations in strains of Salmonella typhimurium", "setting": "Salmonella typhimurium", "value": "did not induce mutations"}, {"measurement": "Chromosomal aberrations in cultured chinese hamster ovary cells", "setting": "[2]", "value": "no aberrations were induced"}, {"measurement": "Plasma lipids (% reduction of control) cholesterol", "setting": "Wistar rats; dose 15 mg/day/kg body weight", "value": "20 % reduction of control"}, {"measurement": "Plasma lipids (% reduction of control) triglycerides", "setting": "Wistar rats; dose 15 mg/day/kg body weight", "value": "25 % reduction of control"}]}, {"molecule": "CCCCCCCCCCCCCCSCCC(=O)O", "values": [{"measurement": "Hepatic triacylglycerol TG (μmol/g)", "setting": "male Wistar rats; TTP 300 mg/kg/day for 6 days", "value": "95,4 ± 14,7 μmol/g"}]}]}
